The text below walks through data of patent US20240116946A1 (Gilead Sciences, Inc., priority 2022, published 2024).

For orientation: IC50 means the point on the concentration scale where inhibition reaches its midpoint. The term EC50 denotes the concentration that produces a half-maximal response.

Like-named read-outs stand apart in the source and are kept apart here.

The target in assay [1] is recombinant SARS-CoV-2 Main protease (Mpro) (Severe acute respiratory syndrome coronavirus 2 (2019-nCoV) (SARS-CoV-2), UniProt P0DTD1). Kind of assay: Cov Mpro Biochemical IC50 Assay. As to conditions: recombinant SARS-CoV-2 Mpro 7.5 nM, fluorogenic peptide substrate 40 μM; read-out: MPro IC50.
The test system of assay [2] is SARS-CoV-2-NLuc. The experiment in a line: microbe, parasite or virus in culture. The format is cell-based, SARS Coronavirus 2.
Setting [3] is: Severe acute respiratory syndrome coronavirus, 48 h, read-out: MPro EC50.
[4] abbreviates: Severe acute respiratory syndrome coronavirus, 48 h; read-out: MPro EC50.

Consider `O=c1[nH]c2cc(-c3c(Cl)cccc3OCc3cscn3)ccc2c(=O)n1-c1cncc2ccccc12` [Example 471, 7-[2-chloro-6-(thiazol-4-ylmethoxy)phenyl]-3-(4-isoquinolyl)-1H-quinazoline-2,4-dione], for which the 50% inhibitory concentration (IC50) in assay [1] amounted to 97.2 nM. Moreover, the EC50 in assay [2] (read-out: MPro EC50) worked out at 478 nM.
Regarding `Cc1nn(C2CCNCC2)cc1-c1cccc(Cl)c1-c1ccc2c(=O)n(-c3cncc4ccccc34)c(=O)[nH]c2c1` [Example 472, 7-[2-chloro-6-[3-methyl-1-(4-piperidyl)pyrazol-4-yl]phenyl]-3-(4-isoquinolyl)-1H-quinazoline-2,4-dione], the concentration for half-maximal inhibition (IC50) in assay [1] stood at 5.11 nM. Besides, the 50% effective concentration (EC50) in assay [2] (setting [3]) amounted to 188 nM.
Turning to `Cc1c(-c2cccc(Cl)c2-c2ccc3c(=O)n(-c4cncc5ccccc45)c(=O)[nH]c3c2)cnn1C1CCNCC1` [Example 473], in assay [1], the IC50 was found to be 17.5 nM. In assay [2] (setting [3]), the EC50 was determined as 1810 nM.
For `O=c1[nH]c2cc(-c3c(Cl)cccc3-c3cnn4c3CNCC4)ccc2c(=O)n1-c1cncc2ccccc12` [Example 474] the same measures were 14 nM and 124 nM.
`O=c1[nH]c2cc(-c3ccccc3Cl)sc2c(=O)n1-c1cncc2ccsc12` [Example 479, 6-(2-chlorophenyl)-3-thieno[3,2-c]pyridin-7-yl-1H-thieno[3,2-d]pyrimidine-2,4-dione]: the IC50 in assay [1] is 16.7 nM. In assay [2] (setting [3]), the EC50 amounted to 20.9 nM.
Regarding `COc1ccc(Cl)c(-c2cc3[nH]c(=O)n(-c4cncc5ccsc45)c(=O)c3s2)c1` [Example 480], the half-inhibitory concentration (IC50) in assay [1] was found to be 4.97 nM. Also, in assay [2] (setting [3]), the EC50 is 10.2 nM.
For `COc1cc(-c2cc3[nH]c(=O)n(-c4cncc5ccsc45)c(=O)c3s2)c(Cl)cc1F` [Example 482], the IC50 in assay [1] was under 2.54 nM. Also, the 50% effective concentration (EC50) in assay [2] (setting [3]) amounted to 4.44 nM.
For `COc1ccc(C#N)c(-c2cc3[nH]c(=O)n(-c4cncc5ccsc45)c(=O)c3s2)c1` [Example 483] the same measures were under 2.54 nM and 18.1 nM.
Regarding `COc1ccc(C#N)c(-c2cc3[nH]c(=O)n(-c4cncc5ncsc45)c(=O)c3s2)c1` [Example 484], the IC50 in assay [1] was 38.9 nM. The EC50 in assay [2] (setting [3]) was 482 nM.
`COc1ccc(Cl)c(-c2cc3[nH]c(=O)n(-c4cncc5ncsc45)c(=O)c3s2)c1` [Example 485]: the IC50 in assay [1] stood at 9.6 nM. Further, the concentration giving a half-maximal response (EC50) in assay [2] (setting [3]) amounted to 62.6 nM.
Take `COc1ccc(Cl)c(-c2cc3[nH]c(=O)n(-c4cncc5ncsc45)c(=O)c3s2)c1` [Example 486]: the IC50 in assay [1] worked out at 5.9 nM. In addition, in assay [2] (read-out: MPro EC50), the EC50 is 29.4 nM.
Consider `COc1ccc(Cl)c(-c2cc3[nH]c(=O)n(-c4cncc5nc(C(F)(F)F)sc45)c(=O)c3s2)c1` [Example 487], for which the concentration for half-maximal inhibition (IC50) in assay [1] came to 908 nM. The EC50 in assay [2] (setting [3]) came out at 742 nM.
As to `COc1cc(-c2cc3[nH]c(=O)n(-c4cncc5nc(C(F)(F)F)sc45)c(=O)c3s2)c(Cl)cc1F` [Example 488], the half-inhibitory concentration (IC50) in assay [1] came out at 1020 nM. The half-maximal effective concentration (EC50) in assay [2] (setting [3]) was determined as 618 nM.
Turning to `COc1ccc(Cl)c(-c2cc3[nH]c(=O)n(-c4cncc5c4ccn5C)c(=O)c3s2)c1` [Example 489], in assay [1], the IC50 was found to be 2.63 nM. The concentration giving a half-maximal response (EC50) in assay [2] (setting [3]) is 20.4 nM.
Turning to `O=c1[nH]c2cc(-c3ccccc3Cl)sc2c(=O)n1-c1cncc2ccoc12` [Example 490], the IC50 in assay [1] is 20.8 nM. For the same compound, the half-maximal effective concentration (EC50) in assay [2] (setting [3]) was 55.8 nM.
Regarding `Cn1ncc2c(-n3c(=O)[nH]c4cc(-c5ccccc5Cl)sc4c3=O)cncc21` [Example 491], in assay [1], the IC50 was 17.3 nM. In addition, the EC50 in assay [2] (setting [3]) worked out at 64.3 nM.
On to `O=c1[nH]c2cc(-c3ccccc3Cl)sc2c(=O)n1-c1cncc2c1cnn2CC(F)(F)F` [Example 492], for which, in assay [1], the half-maximal inhibitory concentration (IC50) is over 50000 nM. Also, in assay [2] (setting [3]), the EC50 was found to be 4840 nM.
In the case of `COc1ccc(Cl)c(-c2cc3[nH]c(=O)n(-c4cncc5ccoc45)c(=O)c3s2)c1` [Example 493], the IC50 in assay [1] is 7.94 nM. Moreover, in assay [2] (setting [3]), the EC50 was found to be 33.5 nM.
`O=c1[nH]c2cc(-c3ccccc3Cl)sc2c(=O)n1-c1cncc2cn(CC(F)(F)F)nc12` [Example 494]: the IC50 in assay [1] was 36 nM. Moreover, the EC50 in assay [2] (setting [3]) is 118 nM.
For `Cn1ncc2cncc(-n3c(=O)[nH]c4cc(-c5ccccc5Cl)sc4c3=O)c21` [Example 495] the same measures were 6.41 nM and 17.2 nM.
Take `O=c1[nH]c2cc(-c3ccccc3Cl)sc2c(=O)n1-c1cncc2cnn(CC(F)(F)F)c12` [Example 496]: the IC50 in assay [1] came to 31.6 nM. Further, the EC50 in assay [2] (setting [3]) was 138 nM.
With `COc1ccc(Cl)c(-c2cc3[nH]c(=O)n(-c4cncc5c4cnn5C)c(=O)c3s2)c1` [Example 497], in assay [1], the 50% inhibitory concentration (IC50) came to 6.24 nM. In addition, the concentration giving a half-maximal response (EC50) in assay [2] (setting [4]) came to 19.1 nM.
Consider `COc1ccc(Cl)c(-c2cc3[nH]c(=O)n(-c4cncc5cnn(C)c45)c(=O)c3s2)c1` [Example 498], for which the IC50 in assay [1] was under 2.54 nM. For the same compound, in assay [2] (setting [3]), the EC50 is under 5.96 nM.
With `COc1ccc(Cl)c(-c2cc3[nH]c(=O)n(-c4cncc5c4cnn5CC(F)(F)F)c(=O)c3s2)c1` [Example 499], the IC50 in assay [1] is 1920 nM. For the same compound, the EC50 in assay [2] (setting [3]) was 6950 nM.
For `COc1ccc(Cl)c(-c2cc3[nH]c(=O)n(-c4cncc5cnn(CC(F)(F)F)c45)c(=O)c3s2)c1` [Example 500] the same measures were 9.12 nM and 42.6 nM.
Take `COc1ccc(Cl)c(-c2cc3[nH]c(=O)n(-c4cncc5nn(CC(F)(F)F)cc45)c(=O)c3s2)c1` [Example 501]: the IC50 in assay [1] was found to be 14.8 nM. For the same compound, the EC50 in assay [2] (setting [4]) is 93.9 nM.
As to `COc1ccc(Cl)c(-c2cc3[nH]c(=O)n(-c4cncc5cn(CC(F)(F)F)nc45)c(=O)c3s2)c1` [Example 502], the half-inhibitory concentration (IC50) in assay [1] is under 2.54 nM. Further, in assay [2] (setting [3]), the EC50 was 34.8 nM.
As to `COc1cc(-c2cc3[nH]c(=O)n(-c4cncc5cnn(C)c45)c(=O)c3s2)c(Cl)cc1F` [Example 505, 6-(2-chloro-4-fluoro-5-methoxyphenyl)-3-(1-methyl-1H-pyrazolo[4,3-c]pyridin-7-yl)thieno[3,2-d]pyrimidine-2,4(1H,3H)-dione], in assay [1], the concentration for half-maximal inhibition (IC50) came to 5.45 nM. In addition, the EC50 in assay [2] (setting [3]) stood at 9.97 nM.
With `COc1ccc(C#N)c(-c2cc3[nH]c(=O)n(-c4cncc5cnn(C)c45)c(=O)c3s2)c1` [Example 506], in assay [1], the IC50 amounted to 19.6 nM. Moreover, the EC50 in assay [2] (setting [3]) was found to be 99.5 nM.
Consider `COc1cc(-c2cc3[nH]c(=O)n(-c4cncc5cnn(CC(F)(F)F)c45)c(=O)c3s2)c(Cl)cc1F` [Example 507], for which the IC50 in assay [1] is 18.8 nM. The EC50 in assay [2] (setting [3]) was 39.2 nM.
As to `COc1ccc(C#N)c(-c2cc3[nH]c(=O)n(-c4cncc5cnn(CC(F)(F)F)c45)c(=O)c3s2)c1` [Example 508], in assay [1], the IC50 came to 21.2 nM. Also, the EC50 in assay [2] (setting [3]) amounted to 205 nM.
With `COc1ccc(Cl)c(-c2cc3[nH]c(=O)n(-c4cncc5cc(C(C)(C)O)sc45)c(=O)c3s2)c1` [Example 512, 6-(2-chloro-5-methoxy-phenyl)-3-[2-(1-hydroxy-1-methyl-ethyl)thieno[3,2-c]pyridin-7-yl]-1H-thieno[3,2-d]pyrimidine-2,4-dione], in assay [1], the IC50 came to 5.71 nM. In assay [2] (setting [3]), the concentration giving a half-maximal response (EC50) came to 26.9 nM.
With `COc1cc(-c2cc3[nH]c(=O)n(-c4cncc5cc(C(C)(C)O)sc45)c(=O)c3s2)c(Cl)cc1F` [Example 513], the concentration for half-maximal inhibition (IC50) in assay [1] was found to be 7.18 nM. Moreover, in assay [2] (setting [3]), the EC50 is 45.9 nM.
Take `COc1ccc(C#N)c(-c2cc3[nH]c(=O)n(-c4cncc5cc(C(C)(C)O)sc45)c(=O)c3s2)c1` [Example 514]: the concentration for half-maximal inhibition (IC50) in assay [1] was 15.8 nM. Further, in assay [2] (setting [3]), the 50% effective concentration (EC50) is 568 nM.
Turning to `COc1ccc(Cl)c(-c2cc3[nH]c(=O)n(-c4cncc5sc(C(C)(C)O)cc45)c(=O)c3s2)c1` [Example 515], the 50% inhibitory concentration (IC50) in assay [1] was determined as 8.51 nM. The 50% effective concentration (EC50) in assay [2] (setting [3]) was determined as 17.5 nM.
On the same counts, the results for `COc1ccc(Cl)c(-c2cc3[nH]c(=O)n(-c4cncc5sc(C(C)(C)O)c(C)c45)c(=O)c3s2)c1` [Example 516] are 5.27 nM and 7.87 nM.
On to `Cc1nn(C)cc1-c1cccc(Cl)c1-c1cc2[nH]c(=O)n(-c3cncc4ccccc34)c(=O)c2s1` [Example 518, 6-[2-chloro-6-(1,3-dimethylpyrazol-4-yl)phenyl]-3-(4-isoquinolyl)-1H-thieno[3,2-d]pyrimidine-2,4-dione], for which the IC50 in assay [1] worked out at 9.15 nM. Moreover, the 50% effective concentration (EC50) in assay [2] (setting [3]) came out at 5.49 nM.
Take `Cc1cn(C)nc1-c1cccc(Cl)c1-c1cc2[nH]c(=O)n(-c3cncc4ccccc34)c(=O)c2s1` [Example 519]: in assay [1], the IC50 was 10.9 nM. The EC50 in assay [2] (setting [3]) stood at 31.6 nM.
Consider `O=c1[nH]c2cc(-c3c(Cl)cccc3-c3cn4ncnc4c4c3CCC4)sc2c(=O)n1-c1cncc2ccccc12` [Example 520], for which the IC50 in assay [1] was under 2.54 nM. In addition, the concentration for a half-maximal effect (EC50) in assay [2] (setting [3]) was 14.6 nM.
With `Cc1ncc(-c2cccc(Cl)c2-c2cc3[nH]c(=O)n(-c4cncc5ccccc45)c(=O)c3s2)n1C` [Example 521], the IC50 in assay [1] was 14.9 nM. In assay [2] (setting [3]), the EC50 was 129 nM.
For `O=c1[nH]c2cc(-c3c(Cl)cccc3C3=CCOCC3)sc2c(=O)n1-c1cncc2ccccc12` [Example 522] the same measures were 9.84 nM and 5.1 nM.
Take `O=c1[nH]c2cc(-c3c(Cl)cccc3-c3cnn4c3COCC4)sc2c(=O)n1-c1cncc2ccccc12` [Example 523]: the concentration for half-maximal inhibition (IC50) in assay [1] amounted to 4.05 nM. For the same compound, the EC50 in assay [2] (setting [3]) came out at 5.79 nM.
As to `CC1(C)Cc2c(-c3cccc(Cl)c3-c3cc4[nH]c(=O)n(-c5cncc6ccccc56)c(=O)c4s3)cnn2C1` [Example 524], the IC50 in assay [1] came to 7.83 nM. Moreover, in assay [2] (setting [3]), the concentration giving a half-maximal response (EC50) was found to be 5.95 nM.
For `Cn1cncc1-c1cccc(Cl)c1-c1cc2[nH]c(=O)n(-c3cncc4ccccc34)c(=O)c2s1` [Example 525] the same measures were 10.4 nM and 81.2 nM.
In the case of `Cn1ncc(-c2cccc(Cl)c2-c2cc3[nH]c(=O)n(-c4cncc5ccccc45)c(=O)c3s2)c1C(F)(F)F` [Example 526], in assay [1], the IC50 is 15.7 nM. Besides, the EC50 in assay [2] (setting [3]) was 8.34 nM.
On the same counts, the results for `Cn1cc(-c2cccc(Cl)c2-c2cc3[nH]c(=O)n(-c4cncc5ccccc45)c(=O)c3s2)c(C2CC2)n1` [Example 527] are 3.22 nM and 1.45 nM.
